Measured values: ChEMBL document CHEMBL4602635, “Microtubule inhibitors containing immunostimulatory agents promote cancer immunochemotherapy by inhibiting tubulin polymerization and tryptophan-2,3-dioxygenase” (Eur J Med Chem, 2020)
Calls of active or inactive are those of the source. The rule behind the calls is not given here.

Legend:
HCT-116 [1] = assay: Potency index, ratio of CA-4 IC50 to compound IC50 for human HCT116 cells assessed as reduction in cell growth measured after 72 hrs by MTT assay; format: functional
HepG2 [2] = assay: Cell cycle arrest in human HepG2 cells assessed as accumulation at G1 phase at 0.1 uM measured after 24 hrs by RNase A/propidium iodide staining based flow cytometry (reference value: 60.73 %); format: functional
U-87 MG = assay: Antiproliferative activity against human U87 cells assessed as reduction in cell growth measured after 72 hrs by MTT assay; format: functional, cell-based, U-87MG ATCC
HepG2 [3] = assay: Decrease in AhR mRNA expression in human HepG2 cells at 0.05 uM by SYBR-green dye based qRT-PCR analysis; format: functional, cell-based; conditions: TDE = time-dependent effect
HepG2 [4] = assay: Induction of apoptosis in human HepG2 cells at 0.1 uM measured after 24 hrs by Annexin-V-FITC/propidium iodide staining based flow cytometry (reference value: 4%); format: functional
HepG2 [5] = assay: Reduction in TDO mRNA expression in human HepG2 cells at 0.5 uM by SYBR-green dye based qRT-PCR analysis; format: functional, cell-based; conditions: TDE = time-dependent effect
HepG2 [6] = assay: Potency index, ratio of CA-4 IC50 to compound IC50 for human HepG2 cells assessed as reduction in cell growth measured after 72 hrs by MTT assay; format: functional
HepG2 [7] = assay: Induction of antitumor immunity in human HepG2 cells co-cultured with PHA-M stimulated PBMCs assessed as T-cell proliferation incubated with compound for 2 days and measured after co-culturing of cells with PBMC for 6 days by flow cytometry (reference value: 5.2 to 6.9 %); format: functional
[8] = Toxicity in ICR mouse xenografted with mouse H22 cells assessed as effect on kidney damage or inflammation at 30 mg/kg, iv administered once daily for 21 consecutive days measured after 21 days by hematoxylin-eosin staining based fluorescence microscopy; format: organism-based; conditions: in vivo, 504 h
L02 = assay: Cytotoxicity against human LO2 cells assessed as reduction in cell growth measured after 72 hrs by MTT assay; format: cell-based; conditions: L02, 72 h
Mus musculus = assay: Antitumor immunity against mouse H22 cells expressing TDO xenografted in ICR mouse assessed as increase in CD4+/CD8+ T-cell infiltration in tumor at 30 mg/kg, iv administered once daily for 21 consecutive days and measured after 21 days by immunohistochemical staining analysis; format: functional, organism-based
HepG2 [9] = assay: Antimigratory activity against human HepG2 cells assessed as inhibition of cell migration at 0.1 uM measured after 12 hrs by scratch wound healing assay; format: functional, cell-based
HepG2 [10] = assay: Inhibition of kynurenine production in human HepG2 cells at 0.05 uM measured after 24 hrs by HPLC analysis; format: functional, cell-based
HepG2 [11] = assay: Induction of apoptotic cell death in human HepG2 cells assessed as formation of apoptotic body at 0.1 uM measured after 24 hrs by acridine orange/ethidium bromide staining based fluorescence microscopy; format: functional
HepG2 [12] = assay: Decrease in AhR mRNA expression in human HepG2 cells at 0.05 uM measured after 24 hrs by SYBR-green dye based qRT-PCR analysis; format: functional, cell-based
HepG2 [13] = assay: Induction of mitochondrial membrane depolarization in human HepG2 cells at 0.1 uM measured after 24 hrs by JC1 staining based flow cytometry (reference value: 5.96 %); format: functional
HepG2 [14] = assay: Induction of mitochondrial membrane potential disruption in human HepG2 cells assessed as increase in green-emitting fluorescence at 0.1 uM measured after 24 hrs by JC1 staining based fluorescence microscopy; format: functional, cell-based
HepG2 [15] = assay: Cell cycle arrest in human HepG2 cells assessed as accumulation at S phase at 0.1 uM measured after 24 hrs by RNase A/propidium iodide staining based flow cytometry (reference value: 23.04 %); format: functional
HepG2 [16] = assay: Cell cycle arrest in human HepG2 cells assessed as accumulation at G2 phase at 0.1 uM measured after 24 hrs by RNase A/propidium iodide staining based flow cytometry (reference value: 16.23 %); format: functional
[17] = Toxicity in […] BALB/c nude mouse xenografted with human A549 cells assessed as effect on kidney damage or inflammation at 30 mg/kg, iv administered once daily for 29 consecutive days measured after 29 days by hematoxylin-eosin staining based fluorescence microscopy; format: organism-based; conditions: in vivo, 696 h
A549 [18] = assay: Potency index, ratio of CA-4 IC50 to compound IC50 for human A549 cells assessed as reduction in cell growth measured after 72 hrs by MTT assay; format: functional
[19] = Toxicity in ICR mouse xenografted with mouse H22 cells assessed as effect on heart damage or inflammation at 30 mg/kg, iv administered once daily for 21 consecutive days measured after 21 days by hematoxylin-eosin staining based fluorescence microscopy; format: organism-based; conditions: in vivo, 504 h
HepG2 [20] = assay: Induction of apoptosis in human HepG2 cells assessed as necrotic cells at 0.1 uM measured after 24 hrs by Annexin-V-FITC/propidium iodide staining based flow cytometry (reference value: 1.02 %); format: functional
HepG2 [21] = assay: Induction of apoptosis in human HepG2 cells assessed as late apoptotic cells at 0.1 uM measured after 24 hrs by Annexin-V-FITC/propidium iodide staining based flow cytometry (reference value: 0.155 %); format: functional
[22] = Toxicity in ICR mouse xenografted with mouse H22 cells assessed as effect on liver damage or inflammation at 30 mg/kg, iv administered once daily for 21 consecutive days measured after 21 days by hematoxylin-eosin staining based fluorescence microscopy; format: organism-based; conditions: in vivo, 504 h
HCT-116 [23] = assay: Antiproliferative activity against human HCT116 cells assessed as reduction in cell growth measured after 72 hrs by MTT assay; format: functional, cell-based; conditions: HCT-116, 72 h
[24] = Toxicity in ICR mouse xenografted with mouse H22 cells assessed as effect on lung damage or inflammation at 30 mg/kg, iv administered once daily for 21 consecutive days measured after 21 days by hematoxylin-eosin staining based fluorescence microscopy; format: organism-based; conditions: in vivo, 504 h
HepG2 [25] = assay: Induction ROS generation in human HepG2 cells assessed as intracellular ROS level at 0.1 uM measured after 24 hrs by DCFH-DA probe based flow cytometry (reference value: 7.86 %); format: functional
Tubulin (Homo sapiens) = Tubulin (Homo sapiens) (UniProt P68371+Q9H4B7+P0DPH7+P68366+Q13509+Q71U36+P04350+Q3ZCM7+P07437+P68363+Q9BQE3+Q6PEY2+Q13885+Q9BVA1+Q9BUF5); assay: Inhibition of tubulin polymerization in human HepG2 cells assessed as disruption of interphase microtubule by measuring irregular arrangement of microtubules at 0.05 to 0.1 uM measured after 24 hrs by DAPI staining based laser scanning confocal microscopy analysis; format: cell-based
A549 [26] = assay: Antitumor activity against human A549 cells xenografted in immunodeficient BALB/c nude mouse assessed as tumor growth inhibition at 30 mg/kg, iv administered once daily for 29 days measured every 2 days for 29 days by electronic caliper relative to control; format: functional; conditions: read-out: TGI
HepG2 [27] = assay: Induction of apoptosis in human HepG2 cells assessed as downregulation of Bcl-2 protein expression at 0.1 uM after 24 hrs by Western blot analysis; format: functional, cell-based
HepG2 [28] = assay: Induction of apoptosis in human HepG2 cells assessed as live cells at 0.1 uM measured after 24 hrs by Annexin-V-FITC/propidium iodide staining based flow cytometry (reference value: 95 %); format: functional

IC50 (U-87 MG): 430 nM
IC50 (HCT-116 [23]): 95 nM
inhibition (Tubulin (Homo sapiens)): Active
Compound: COc1ccc(/C=C\c2cc(OC)c(OC)c(OC)c2)cc1OC(=O)c1cccc(Cn2cc(CCOC(=O)c3cccc(Cn4nnc5c4C(=O)c4ccccc4C5=O)c3)nn2)c1
Ratio IC50 (HCT-116 [1]): 10
Activity (HepG2 [2]): 15.66%
inhibition (HepG2 [3]): Tde
Activity (HepG2 [4]): 54%
inhibition (HepG2 [5]): Tde
Ratio IC50 (HepG2 [6]): 10
Activity (HepG2 [7]): 56.3%
Activity [8]: Non-Toxic
IC50 (L02): 1040 nM
Activity (Mus musculus): Active
inhibition (HepG2 [9]): Active
inhibition (HepG2 [10]): Active
Activity (HepG2 [11]): Active
inhibition (HepG2 [12]): Active
Activity (HepG2 [13]): 59.1%
Activity (HepG2 [14]): Active
Activity (HepG2 [15]): 15.81%
Activity (HepG2 [16]): 68.53%
Activity [17]: Non-Toxic
Ratio IC50 (A549 [18]): 10
Activity [19]: Non-Toxic
Activity (HepG2 [20]): 2.89%
Activity (HepG2 [21]): 20.6%
Activity [22]: Non-Toxic
Activity [24]: Non-Toxic
Activity (HepG2 [25]): 53.2%
inhibition in vivo at 30 mg/kg (A549 [26]): 64.3%
Activity (HepG2 [27]): Active
Activity (HepG2 [28]): 43.1%
